Patent US9695155B2, “Herbicidal substituted pyrimidinyloxy benzene compounds” (E. I. DU PONT DE NEMOURS AND COMPANY, priority 2013, dated 2017)

What was measured:
blackgrass = assay: Test C preemergence; assay type: in vivo, Alopecurus myosuroides; conditions: for Blackgrass plant response rating: preemergence
In short: (§1)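 Plants were kept under greenhouse conditions for 13–15 days following spray. Pre-emergent application went to soil (loam–sand), post-emergent to foliage at 1–4 leaves. Evaluation: visual, percent control against untreated checks.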

large (Lg) crabgrass = assay: Test C postemergence; assay type: in vivo, Digitaria sanguinalis; conditions: for Plant response rating, Crabgrass, Large: Postemergence
In short: as §1

giant foxtail [1] = assay: Test C preemergence; assay type: in vivo, Setaria faberii; conditions: for Foxtail, Giant plant response rating: preemergence
In short: as §1

corn = assay: Test C postemergence; assay type: in vivo, Zea mays; conditions: for Plant response rating, Corn: Postemergence
In short: as §1

waterhemp = assay: Test C postemergence; assay type: in vivo, Amaranthus rudis; conditions: for Plant response rating, Waterhemp: Postemergence, scale 0 to 100 (0 no effect, 100 complete control)
In short: as §1

johnsongrass [2] = assay: Test C preemergence; assay type: in vivo, Sorghum halepense; conditions: for Johnsongrass plant response rating: preemergence
In short: as §1

giant foxtail [3] = assay: Test A postemergence; assay type: in vivo, Setaria faberii; conditions: 0 to 100 scale where 0 is no effect and 100 is complete control
In short: (§2)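 Visual 0–100 rating (100 = complete control) taken about 10 d post-treatment relative to untreated checks. Preemergence: directed soil spray on sown loam/sand pots. Postemergence: seedlings 2–10 cm, 1–2 leaf. Non-phytotoxic solvent formulation with surfactant.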

pigweed [4] = assay: Test A preemergence; assay type: in vivo, Amaranthus retroflexus
In short: as §2

johnsongrass [5] = assay: Test C postemergence; assay type: in vivo, Sorghum halepense; conditions: for Plant response rating, Johnsongrass: Postemergence
In short: as §1

oilseed rape = assay: Test C postemergence; assay type: in vivo, Brassica napus; conditions: for Plant response rating, Oilseed Rape: Postemergence, scale 0 to 100 (0 no effect, 100 complete control)
In short: as §1

ragweed = assay: Test C preemergence; assay type: in vivo, Ambrosia elatior; conditions: for Ragweed plant response rating: preemergence
In short: as §1

velvetleaf = assay: Test C postemergence; assay type: in vivo, Abutilon theophrasti; conditions: for Plant response rating, Velvetleaf: Postemergence, scale 0 to 100 (0 no effect, 100 complete control)
In short: as §1

pigweed [6] = assay: Test A postemergence; assay type: in vivo, Amaranthus retroflexus; conditions: 0 to 100 scale where 0 is no effect and 100 is complete control
In short: as §2

[7] = 16 g ai/ha, scale 0 to 100 (0 no effect, 100 complete control)
[8] = 62 g ai/ha, scale 0 (no effect) to 100 (complete control)
[9] = 125 g ai/ha, scale 0 (no effect) to 100 (complete control)
[10] = Preemergence, 31 g ai/ha, scale 0 to 100, 0 no effect, 100 complete control
[11] = 16 g ai/ha, postemergence, visual rating, scale 0 to 100 (0 no effect, 100 complete control), 13 to 15 days
[12] = 31 g ai/ha, scale 0 to 100 (0 no effect, 100 complete control), 13 to 15 days
[13] = 62 g ai/ha, scale 0 to 100 (0 no effect, 100 complete control)

With CCOc1cn(-c2c(Br)cccc2Oc2ncc(Cl)cn2)nn1 [Compound 84] the “Blackgrass plant response rating” value (blackgrass; [7]) was 0, the “Blackgrass plant response rating” value (blackgrass; [8]) was 40 and the “Blackgrass plant response rating” value (blackgrass; [9]) was 85. For the same compound, the “Plant response rating, Blackgrass” value (blackgrass; [10]) was 5, the “Crabgrass, Large plant response rating” value (large (Lg) crabgrass; [11]) was 5 and the “Plant response rating (0 to 100), Crabgrass, Large” value (large (Lg) crabgrass; 125 g ai/ha, postemergence) was 30. The “Plant response rating, Crabgrass, Large” value (large (Lg) crabgrass; [12]) was 5, the “Plant response rating, Crabgrass, Large” value (large (Lg) crabgrass; [13]) was 5 and the “Foxtail, Giant plant response rating” value (giant foxtail [1]; [7]) was 5. The “Foxtail, Giant plant response rating” value (giant foxtail [1]; [8]) was 98, the “Foxtail, Giant plant response rating” value (giant foxtail [1]; [9]) was 100 and the “Plant response rating, Foxtail, Giant” value (giant foxtail [1]; [10]) was 55. For the same compound, the “Corn plant response rating” value (corn; [11]) was 0, the “Plant response rating (0 to 100), Corn” value (corn; 125 g ai/ha, postemergence) was 5 and the “Plant response rating, Corn” value (corn; [12]) was 0. The “Plant response rating, Corn” value (corn; [13]) was 0, the “Plant response rating (0 to 100), Waterhemp” value (waterhemp; 125 g ai/ha, postemergence) was 70 and the “Plant response rating, Waterhemp” value (waterhemp; 31 g ai/ha, 13 to 15 days) was 50. The “Plant response rating, Waterhemp” value (waterhemp; 62 g ai/ha) was 70, the “Johnsongrass plant response rating” value (johnsongrass [2]; [7]) was 0 and the “Johnsongrass plant response rating” value (johnsongrass [2]; [8]) was 40. The “Johnsongrass plant response rating” value (johnsongrass [2]; [9]) was 85, the “Plant response rating, Johnsongrass” value (johnsongrass [2]; [10]) was 20 and the “Plant response rating, Foxtail, Giant” value (giant foxtail [3]; 125 g ai/ha) was 100. For the same compound, the “Plant response rating, Foxtail, Giant” value (giant foxtail [3]; 500 g ai/ha) was 100, the “Plant response rating, Pigweed” value (pigweed [4]; 125 g ai/ha, 0 to 100 scale where 0 is no effect and 100 is complete control) was 100 and the “Pigweed plant response rating” value (pigweed [4]; 500 g ai/ha, 0 to 100 scale, 0 no effect, 100 complete control, approx. 10 days) was 100. The “Johnsongrass plant response rating” value (johnsongrass [5]; [11]) was 0, the “Plant response rating (0 to 100), Johnsongrass” value (johnsongrass [5]; 125 g ai/ha, postemergence) was 0 and the “Plant response rating, Johnsongrass” value (johnsongrass [5]; [12]) was 0. The “Plant response rating, Johnsongrass” value (johnsongrass [5]; [13]) was 0, the “Plant response rating (0 to 100), Oilseed Rape” value (oilseed rape; 125 g ai/ha, postemergence) was 60 and the “Plant response rating, Oilseed Rape” value (oilseed rape; 31 g ai/ha, 13 to 15 days) was 20. For the same compound, the “Plant response rating, Oilseed Rape” value (oilseed rape; 62 g ai/ha) was 45, the “Ragweed plant response rating” value (ragweed; [7]) was 0 and the “Ragweed plant response rating” value (ragweed; [8]) was 60. The “Ragweed plant response rating” value (ragweed; [9]) was 85, the “Plant response rating, Ragweed” value (ragweed; [10]) was 60 and the “Plant response rating (0 to 100), Velvetleaf” value (velvetleaf; 125 g ai/ha, postemergence) was 90. The “Plant response rating, Velvetleaf” value (velvetleaf; 31 g ai/ha, 13 to 15 days) was 45, the “Plant response rating, Velvetleaf” value (velvetleaf; 62 g ai/ha) was 70 and the “Plant response rating, Pigweed” value (pigweed [6]; 125 g ai/ha) was 100. For the same compound, the “Plant response rating, Pigweed” value (pigweed [6]; 500 g ai/ha) was 100.
